Test results reported in patent US10471035B2, “Compositions and methods for using esters of meroterpenes and of other resveratrol analogues” (Sunny BioDiscovery, priority 2014, dated 2019).
Values after ≈ are worked out from the molar mass of the structure shown.

Legend:
[1] = test system: non-irradiated neonatal HDF; test: Cytotoxicity on non-irradiated neonatal HDF monolayers; assay type: cell-based, human; details: human, 12.5 μg/ml
[2] = test system: P. acnes; test: MIC against planktonic P. acnes; assay type: cell-based, Propionibacterium acnes; details: Cutibacterium acnes; exponentially-growing planktonic bacteria, oxygen-free atmosphere; read-out: MIC (minimal inhibitory concentration)
Protocol: Serial dilutions of SBD.SE and SBD.FA were incubated with exponentially-growing planktonic P. acnes bacteria in oxygen-free atmosphere.
The MIC (minimal inhibitory concentration) for SBD.SE was determined to be about 30 μg/ml and for SBD.FA—about 60 μg/ml.

SMILES: C=C[C@@](C)(/C=C/c1ccc(OC(=O)c2ccccc2O)cc1)CCC=C(C)C [SBD.SE, Salicylic acid ester of bakuchiol]
- cytotoxicity [1]: 18%
- MIC [2]: ~30 µg/mL (≈ 79.7 µM)
